Columns and labels:
Format in all cases: cell-based
α4β1 integrin = α4β1 integrin (Homo sapiens (Human), UniProt P05556+P13612); test: VCAM-1/α4β1 integrin binding inhibitory activity evaluation test (Jurkat cell adhesion to VCAM-1/Fc); settings: Jurkat cells binding to recombinant human VCAM-1/Fc
Description: The ability of test substances to inhibit the binding of a human T-cell line, Jurkat, which is known to express α4β1 integrin, to VCAM-1 was measured. To 96-well microtiter plates, recombinant human VCAM-1/Fc (R&D systems) solution (1 μg/mL) diluted with buffer A (carbonate buffer, pH 9.6) was added at 50 μL/well, followed by incubation at 4° C. overnight. After washing once with PBS, Block Ace (Snow Brand Milk Products Company, Limited) was added at 150 μL/well, followed by incubation at room temperature for 2 hours. After removal, washing was conducted once with PBS. 100 μL of each test substance diluted with a binding buffer (DMEM containing 40 mM HEPES, 0.2% BSA, and 4 mM MnCl2) to various concentrations and 100 μL of the Jurkat cells (2×10^6 cell/mL) were added to the plates coated with VCAM-1/Fc (5×10^5 cells/well), followed by incubation at 30° C. for 15 minutes to 60 minutes. After the cells were bound to each well, unbound cells were removed by washing with PBS. To the plates, buffer C (PBS containing 1.5% Triton X-100) was added at 50 μL/well to lyse the bound Jurkat cells. To 30 μL of the cell lysate, 30 μL of Substrate Buffer (Promega, CytoTox 96 Non-Radioactive Cytotoxicity Assay) was added, and the reaction was allowed to proceed at room temperature in a dark place for 30 minutes. To each well, 30 μL of Stop Solution (Promega, CytoTox 96 Non-Radioactive Cytotoxicity Assay) was added, and the absorbance at 490 nm was measured by using a plate reader. Here, by the obtained absorbance, the activity of the lactate dehydrogenase (LDH) dissolved into the supernatant of each well was detected. In other words, the absorbance was proportional to the number of the Jurkat cells bound to VCAM-1 and remaining on the plate. The test was duplicated. The binding ratios of the cells at various concentrations were determined, with the absorbance of a well containing no test substances taken as 100%. Then, the concentration IC50, at which 50% binding inhibition was achieved, was calculated. […] Note that, among the compounds synthesized in the corresponding Examples, the compounds in the free form (Compounds A-1 to A-39) were used as the test compounds. Hereinafter, the same shall apply.

α4β7 integrin [1] = molecular target: T1, α4β7 integrin (Homo sapiens (Human), UniProt P13612+P26010); test: MAdCAM-1/α4β7 integrin binding inhibitory activity evaluation test (RPMI-8866 cell adhesion to MAdCAM-1/Fc); settings: for Selectivity: IC50 in VCAM-1/α4β1 test divided by IC50 in MAdCAM-1/α4β7 test; for IC50: RPMI-8866 cells binding to recombinant mouse MAdCAM-1/Fc, no serum
Description: The ability of test substances to inhibit the binding of a human B cell line, RPMI-8866, which is known to express α4β7 integrin, to MAdCAM-1 was measured. To 96-well microtiter plates, recombinant mouse MAdCAM-1/Fc (R&D systems) solution (0.75 μg/mL) diluted with buffer A (carbonate buffer solution, pH 9.6) was added at 50 μL/well, followed by incubation at 4° C. overnight. After washing once with PBS, Block Ace (Snow Brand Milk Products Company, Limited) was added at 150 μL/well, followed by incubation at room temperature for 2 hours. After removal, washing was conducted once with PBS. 100 μL of each test substance diluted with binding buffer (DMEM containing 40 mM HEPES, 0.2% BSA, and 4 mM MnCl2) to various concentrations and 100 μL of RPMI-8866 cells (2×10^6 cell/mL) were added to the plates coated with MAdCAM-1/Fc (5×10^5 cells/well), followed by incubation at 30° C. for 15 minutes to 60 minutes. After the cells were bound to each well, unbound cells were removed by washing with PBS. To the plates, buffer C (PBS containing 1.5% Triton X-100) was added at 50 μL/well to lyse the bound RPMI-8866 cells. To 30 μL of the cell lysate, 30 μL of Substrate Buffer (Promega, CytoTox 96 Non-Radioactive Cytotoxicity Assay) was added, and the reaction was allowed to proceed at room temperature in a dark place for 30 minutes. To each well, 30 μL of Stop Solution (Promega, CytoTox 96 Non-Radioactive Cytotoxicity Assay) was added, and the absorbance at 490 nm was measured by using a plate reader. Here, by the obtained absorbance, the activity of the lactate dehydrogenase (LDH) dissolved into the supernatant of each well was detected. In other words, the absorbance was proportional to the number of the RPMI-8866 cells bound to MAdCAM-1 and remaining on the plate. The test was duplicated. The binding ratios of the cells at various concentrations were determined, with the absorbance of a well containing no test substance taken as 100%. Then, the concentration IC50, at which 50% binding inhibition was achieved, was calculated. […] Note that the selectivity in the table was determined by dividing the IC50 value in VCAM-1/α4β1 Integrin Binding Inhibitory Activity Evaluation Test by the IC50 value in the MAdCAM-1/α4β7 integrin binding inhibitory activity evaluation test.

α4β7 integrin [2] = molecular target: T1, α4β7 integrin; test: MAdCAM-1/α4β7 integrin binding inhibitory activity evaluation test in the presence of serum (1); settings: RPMI-8866 cells binding to mouse MAdCAM-1/Fc, human serum at final concentration of 50%; read-out: α4β7 with serum added, IC50
Description: The ability of test substances to inhibit the binding of a human B cell line, RPMI-8866, which is known to express α4β7 integrin, to MAdCAM-1 was measured. To 96-well microtiter plates, recombinant mouse MAdCAM-1/Fc (R&D systems) solution (1 μg/mL) diluted with buffer A (carbonate buffer, pH 9.6) was added at 50 μL/well, followed by incubation at 4° C. overnight. After washing once with PBS, Block Ace (Snow Brand Milk Products Company, Limited) was added at 150 μL/well, followed by incubation at room temperature for 2 hours. After removal, washing was conducted once with PBS. 100 μL of each test substance diluted with a binding buffer (DMEM containing 40 mM HEPES, 0.2% BSA, and 4 mM MnCl2) to various concentrations and 100 μL of RPMI-8866 cells (2×10^6 cell/mL) were added to plates coated with MAdCAM-1/Fc (5×10^5 cells/well) with human serum being contained at a final concentration of 50%, followed by incubation at 30° C. for 15 minutes to 60 minutes. After the cells were bound to each well, unbound cells were removed by washing with PBS. To the plates, buffer C (PBS containing 1.5% Triton X-100) was added at 50 μL/well to lyse the bound RPMI-8866 cells. To 30 μL of the cell lysate, 30 μL of Substrate Buffer (Promega, CytoTox 96 Non-Radioactive Cytotoxicity Assay) was added, and the reaction was allowed to proceed at room temperature in a dark place for 30 minutes. To each well, 30 μL of Stop Solution (Promega, CytoTox 96 Non-Radioactive Cytotoxicity Assay) was added, and the absorbance at 490 nm was measured by using a plate reader. Here, by the obtained absorbance, the activity of the lactate dehydrogenase (LDH) dissolved into the supernatant of each well was detected. In other words, the absorbance was proportional to the number of the RPMI-8866 cells bound to MAdCAM-1 and remaining on the plate. The test was duplicated. The binding ratios of the cells at various concentrations were determined, with the absorbance of a well containing no test substance taken as 100%. Then, the concentration IC50, at which 50% binding inhibition was achieved, was calculated.

Chain of α4β1 integrin (P13612 34-1032): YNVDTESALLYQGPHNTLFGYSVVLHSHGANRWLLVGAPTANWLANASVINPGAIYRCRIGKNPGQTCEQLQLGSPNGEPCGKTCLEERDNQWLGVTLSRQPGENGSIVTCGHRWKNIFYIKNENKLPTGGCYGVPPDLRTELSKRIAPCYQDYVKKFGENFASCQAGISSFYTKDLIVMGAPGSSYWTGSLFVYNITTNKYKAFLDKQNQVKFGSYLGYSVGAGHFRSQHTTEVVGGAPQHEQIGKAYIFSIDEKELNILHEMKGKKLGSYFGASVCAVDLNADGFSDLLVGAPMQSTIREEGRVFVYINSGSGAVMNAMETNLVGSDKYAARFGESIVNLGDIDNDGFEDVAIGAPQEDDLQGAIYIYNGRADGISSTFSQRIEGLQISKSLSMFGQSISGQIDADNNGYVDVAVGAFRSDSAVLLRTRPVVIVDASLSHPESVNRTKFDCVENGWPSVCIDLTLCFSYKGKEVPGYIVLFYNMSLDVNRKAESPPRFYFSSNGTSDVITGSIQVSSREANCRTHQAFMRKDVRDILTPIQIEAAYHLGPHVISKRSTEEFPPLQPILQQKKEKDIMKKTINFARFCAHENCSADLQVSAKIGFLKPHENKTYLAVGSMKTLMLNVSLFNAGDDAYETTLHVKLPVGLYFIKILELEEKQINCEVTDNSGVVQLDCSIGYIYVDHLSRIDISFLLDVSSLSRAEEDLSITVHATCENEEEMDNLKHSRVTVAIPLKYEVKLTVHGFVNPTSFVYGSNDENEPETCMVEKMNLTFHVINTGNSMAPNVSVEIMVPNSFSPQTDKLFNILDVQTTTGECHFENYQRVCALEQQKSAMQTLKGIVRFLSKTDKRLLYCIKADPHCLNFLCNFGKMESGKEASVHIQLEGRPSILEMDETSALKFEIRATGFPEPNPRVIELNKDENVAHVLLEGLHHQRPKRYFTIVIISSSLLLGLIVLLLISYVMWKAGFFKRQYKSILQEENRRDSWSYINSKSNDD
Chain of α4β1 integrin (P05556 21-798): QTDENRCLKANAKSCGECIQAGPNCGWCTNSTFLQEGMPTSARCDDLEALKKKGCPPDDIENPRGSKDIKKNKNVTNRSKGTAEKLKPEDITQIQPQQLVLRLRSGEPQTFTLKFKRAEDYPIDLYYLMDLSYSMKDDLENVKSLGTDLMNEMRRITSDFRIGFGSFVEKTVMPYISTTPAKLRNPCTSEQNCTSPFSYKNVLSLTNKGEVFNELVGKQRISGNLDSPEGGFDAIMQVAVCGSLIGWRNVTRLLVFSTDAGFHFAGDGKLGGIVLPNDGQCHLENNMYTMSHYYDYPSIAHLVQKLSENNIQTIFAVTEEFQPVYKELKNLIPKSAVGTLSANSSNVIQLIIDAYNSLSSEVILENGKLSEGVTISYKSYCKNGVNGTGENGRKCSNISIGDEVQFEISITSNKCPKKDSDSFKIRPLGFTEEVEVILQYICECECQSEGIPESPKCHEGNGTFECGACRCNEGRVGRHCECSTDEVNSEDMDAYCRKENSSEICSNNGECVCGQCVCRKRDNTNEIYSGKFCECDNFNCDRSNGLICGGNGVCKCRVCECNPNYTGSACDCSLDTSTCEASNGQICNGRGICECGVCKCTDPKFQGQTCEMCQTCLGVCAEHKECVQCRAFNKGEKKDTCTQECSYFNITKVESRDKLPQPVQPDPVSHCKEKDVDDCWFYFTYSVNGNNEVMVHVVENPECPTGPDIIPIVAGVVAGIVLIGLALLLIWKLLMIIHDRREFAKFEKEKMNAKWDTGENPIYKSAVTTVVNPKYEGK
T1 sequence (P13612 34-1032): as the sequence (P13612 34-1032) above
T1 sequence (P26010 20-798): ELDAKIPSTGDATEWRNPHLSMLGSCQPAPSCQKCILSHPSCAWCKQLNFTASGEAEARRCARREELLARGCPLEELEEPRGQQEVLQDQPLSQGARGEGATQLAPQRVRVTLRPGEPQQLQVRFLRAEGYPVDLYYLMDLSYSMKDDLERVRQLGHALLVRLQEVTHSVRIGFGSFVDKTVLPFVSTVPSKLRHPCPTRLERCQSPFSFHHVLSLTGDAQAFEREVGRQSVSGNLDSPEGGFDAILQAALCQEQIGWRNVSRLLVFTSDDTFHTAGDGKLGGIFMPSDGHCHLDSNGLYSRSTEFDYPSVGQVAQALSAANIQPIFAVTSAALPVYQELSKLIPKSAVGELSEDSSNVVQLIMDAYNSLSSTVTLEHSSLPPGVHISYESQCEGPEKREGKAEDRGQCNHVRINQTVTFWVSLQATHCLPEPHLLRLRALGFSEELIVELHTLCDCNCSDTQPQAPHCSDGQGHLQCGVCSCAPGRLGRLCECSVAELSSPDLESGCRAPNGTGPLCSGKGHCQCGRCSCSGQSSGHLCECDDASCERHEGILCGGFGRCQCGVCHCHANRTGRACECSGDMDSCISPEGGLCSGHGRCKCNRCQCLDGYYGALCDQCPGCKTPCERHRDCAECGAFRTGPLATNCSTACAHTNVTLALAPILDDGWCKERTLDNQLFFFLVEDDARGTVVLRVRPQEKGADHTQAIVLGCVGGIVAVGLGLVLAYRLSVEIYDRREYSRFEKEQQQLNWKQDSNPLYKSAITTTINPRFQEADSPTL

Compound	IC50 (α4β1 integrin) [nM]	Selectivity (α4β7 integrin [1])	IC50 (α4β7 integrin [1]) [nM]	IC50 (α4β7 integrin [2]) [nM]
Cn1c(=O)n(-c2ccc(C[C@H](NC(=O)c3c(F)cc(NS(=O)(=O)c4ccc(-n5cncn5)cn4)cc3F)C(=O)O)cc2)c(=O)c2ccncc21 [Example 57, N-[2,6-Difluoro-4-({[5-(1H-1,2,4-triazol-1-yl)pyridin-2-yl]sulfonyl}amino)benzoyl]-4-(1-methyl-2,4-dioxo-1,4-dihydropyrido[3,4-d]pyrimidin-3(2H)-yl)-L-phenylalanine]	13	220	0.06	1.5
Cn1c(=O)n(-c2ccc(C[C@H](NC(=O)c3c(F)cc(NS(=O)(=O)c4ccc(-n5ccnn5)cn4)cc3F)C(=O)O)cc2)c(=O)c2ccncc21 [Example 71, N-[2,6-Difluoro-4-({[5-(1H-1,2,3-triazol-1-yl)pyridin-2-yl]sulfonyl}amino)benzoyl]-4-(1-methyl-2,4-dioxo-1,4-dihydropyrido[3,4-d]pyrimidin-3(2H)-yl)-L-phenylalanine]	22	220	0.098	0.72
Cc1ccc(-c2ccc(S(=O)(=O)Nc3cc(F)c(C(=O)N[C@@H](Cc4ccc(-n5c(=O)c6ccncc6n(C)c5=O)cc4)C(=O)O)c(F)c3)cc2)cn1 [Example 50, N-[2,6-Difluoro-4-({[4-(6-methylpyridin-3-yl)phenyl]sulfonyl}amino)benzoyl]-4-(1-methyl-2,4-dioxo-1,4-dihydropyrido[3,4-d]pyrimidin-3(2H)-yl)-L-phenylalanine]	180	560	0.32	19
Cn1ccc(=O)n(-c2ccc(C[C@H](NC(=O)c3c(F)cc(NS(=O)(=O)c4ccc(-n5nccn5)cn4)cc3F)C(=O)O)cc2)c1=O [Example 72, N-[2,6-Difluoro-4-({[5-(2H-1,2,3-triazol-2-yl)pyridin-2-yl]sulfonyl}amino)benzoyl]-4-(3-methyl-2,6-dioxo-3,6-dihydropyrimidin-1(2H)-yl)-L-phenylalanine]	400	250	1.6	23
CN(C)c1ccc2c(c1)c(=O)n(-c1ccc(C[C@H](NC(=O)c3c(F)cc(NS(=O)(=O)c4ccc(-n5cncn5)cc4)cc3F)C(=O)O)cc1)c(=O)n2C [Example 47, N-[2,6-Difluoro-4-({[4-(1H-1,2,4-triazol-1-yl)phenyl]sulfonyl}amino)benzoyl]-4-[6-(dimethylamino)-1-methyl-2,4-dioxo-1,4-dihydroquinazolin-3(2H)-yl]-L-phenylalanine]	340	1100	0.32	20
Cn1c(=O)n(-c2ccc(C[C@H](NC(=O)c3c(F)cc(NS(=O)(=O)c4ccc(-c5ccncc5)nc4)cc3F)C(=O)O)cc2)c(=O)c2ccncc21 [Example 42, N-{4-[(2,4′-Bipyridin-5-yl-sulfonyl)amino]-2,6-difluorobenzoyl}-4-(1-methyl-2,4-dioxo-1,4-dihydropyrido[3,4-d]pyrimidin-3(2H)-yl)-L-phenylalanine]	52	190	0.27	8.8

Further compounds by falling IC50 (α4β1 integrin), results first:

IC50 (α4β1 integrin) [nM]	Selectivity (α4β7 integrin [1])	IC50 (α4β7 integrin [1]) [nM]	IC50 (α4β7 integrin [2]) [nM]	Compound
420	750	0.56	9.7	Cc1cnccc1-c1ccc(S(=O)(=O)Nc2cc(F)c(C(=O)N[C@@H](Cc3ccc(-n4c(=O)c5ccncc5n(C)c4=O)cc3)C(=O)O)c(F)c2)cc1 [Example 65, N-[2,6-Difluoro-4-({[4-(3-methylpyridin-4-yl)phenyl]sulfonyl}amino)benzoyl]-4-(1-methyl-2,4-dioxo-1,4-dihydropyrido[3,4-d]pyrimidin-3(2H)-yl)-L-phenylalanine]
410	430	0.95	6.5	Cn1ccc(=O)n(-c2ccc(C[C@H](NC(=O)c3c(F)cc(NS(=O)(=O)c4ccc(-n5ccnn5)cn4)cc3F)C(=O)O)cc2)c1=O [Example 73, N-[2,6-Difluoro-4-({[5-(1H-1,2,3-triazol-1-yl)pyridin-2-yl]sulfonyl}amino)benzoyl]-4-(3-methyl-2,6-dioxo-3,6-dihydropyrimidin-1(2H)-yl)-L-phenylalanine]
410	410	1	4.8	Cn1ccc(=O)n(-c2ccc(C[C@H](NC(=O)c3c(F)cc(NS(=O)(=O)c4ccc(-n5ccnn5)cc4)cc3F)C(=O)O)cc2)c1=O [Example 58, N-[2,6-Difluoro-4-({[4-(1H-1,2,3-triazol-1-yl)phenyl]sulfonyl}amino)benzoyl]-4-(3-methyl-2,6-dioxo-3,6-dihydropyrimidin-1(2H)-yl)-L-phenylalanine]
310	820	0.38	4.2	Cn1cnc2c1c(=O)n(-c1ccc(C[C@H](NC(=O)c3c(F)cc(NS(=O)(=O)c4ccc(-c5ccncc5)cc4)cc3F)C(=O)O)cc1)c(=O)n2C [Example 75, N-(2,6-Difluoro-4-{[(4-pyridin-4-yl-phenyl)sulfonyl]amino}benzoyl)-4-(3,7-dimethyl-2,6-dioxo-2,3,6,7-tetrahydro-1H-purin-1-yl)-L-phenylalanine]

Source: patent publication US9533985B2, “Sulfonamide derivative and medicinal use thereof” (EA Pharma Co., Ltd., priority 2012, dated 2017)
